For one data set, the system named is HMGCR mRNA. Put plainly: Quantitative real-time PCR of rat brain, HMGCR mRNA. Format: in vivo. Conditions: sesamin 60 mg/kg, 4 weeks, vs control. The method, then:
(§1) The experiments were reviewed and approved by the Experimental Animal Centre of Dalian Medical University. All rats were obtained from Liaoning Changsheng Biotechnology co., Ltd. All animal experiments complied with the ARRIVE guidelines and were carried out in accordance with the National Institutes of Health guide for the care and use of laboratory animals (NIH Publications No. […], revised 1978). Wistar rats were randomly divided into the administration group (n = 5) and the control group (n = 5). The rats were provided with laboratory standard animal feed and kept under a 12-h light cycle. Sesamin (60 mg/kg) was given by intragastric administration daily for 4 weeks; the control group was given an equivalent volume of olive oil. The rats were anesthetized with pentobarbital sodium (40 mg/kg) and blood samples and brain tissue samples were collected for further assays. The experimental procedure was performed as described previously ([Wen et al., 2018]). Total brain RNA and cDNA synthesis were meausured with an RNAiso Plus Reagent Kit and SYBR Premix Ex Taq Kit, respectively (Takara Biotechnology, Dalian, China). Quantitative real-time PCR was performed using SYBR Green PCR Master Mix and an ABI prim 7500 Sequence Detection System (Applied Biosystems, United States). Primers used for RT-qPCR are shown in Supplementary Table S2.

The next data set relates to CYP46A1 mRNA. Put plainly: Quantitative real-time PCR of rat brain, CYP46A1 mRNA. Conditions: sesamin 60 mg/kg, 4 weeks, vs control. Format: in vivo. The method, then:
as §1

The nature of data set [1]: Membrane permeability assay across MDCK-MDR1 monolayer. Conditions: dog.
Experimental: (§3) To estimate the permeability of the sesamin lignans across the blood-brain barrier (BBB), a membrane permeability assay was conducted with an MDCK-MDR1 monolayer. The transport assays were performed by seeding MDCK-MDR1 cells on a tissue culture plate insert (BIOFIL®, PC membrane, 0.33 cm^2 surface area, 0.4 μm pore size) in 24-well companion plates for 5 days. The culture medium was changed once every 2–3 days. To confirm the confluency of the cell monolayer, the trans-epithelial electrical resistance (TEER) of each well was measured before the transport assay using a resistance meter (Millipore, Millicell® ERS-2, United States). […] The cell monolayer was gently washed with Hank’s Balanced Salt Solution (HBSS) at 37°C and the transwell chamber was pre-incubated for 30 min. […] After 120 min of incubation, a 50 μL sample was removed from the receiver compartment and uniformly mixed with 50 μL methanol. Then, it was centrifuged at 20,000 ×g at 4°C for 20 min. All available samples in the receiver compartments were injected into the HPLC system for analysis. The HPLC system comprised an Agilent MSD/MS system controller, two 1,260 series pumps, a 1,200 series autosampler, a 1,200 series variable wavelength detector, and an elite ODS-BP analysis column (4.6 × 200 mm, 5 μm). The mobile phase for sesame lignans was methanol/water (80/20, v/v), and the flow rate was 0.8 ml/min with a detector wavelength of 290 nm. […] Ultraviolet detection was performed at 230 nm. The permeability (P app) and efflux ratio (ER) were calculated as follows (Eqs. 4, 5) ([Grès et al., 1998]). Papp=dQ/dt⋅1/A⋅C0 (4) In Eq. (4), A denotes the area of mass transfer, C0 represents the donor concentration of compound in the upper medium, and dQ/dt is the rate of transmembrane transportation. […] ER=Papp, B→A/Papp, A→B (5)
(§4) In Eq. (5), P app, B→A denotes the basal to apical (B-A) transport rate, and P app, A→B is the apical to basal (A-B) transport rate.
The test system of data set [2] is CYP46A1. The experiment in a line: Western blotting of rat brain tissue, CYP46A1. Format: in vivo. Conditions: sesamin 60 mg/kg, 4 weeks, vs control. The method, then: as §1, with “assays.” for “assays. The experimental procedure was performed as described previously ([Wen et al., 2018]). Total brain RNA and cDNA synthesis were meausured with an RNAiso Plus Reagent Kit and SYBR Premix Ex Taq Kit, respectively (Takara Biotechnology, Dalian, China). Quantitative real-time PCR was performed using SYBR Green PCR Master Mix and an ABI prim 7500 Sequence Detection System (Applied Biosystems, United States). Primers used for RT-qPCR are shown in Supplementary Table S2.”
(§2) The cells and tissues were harvested with lysis buffer and cleaved at 4°C for 20 min. All samples were centrifuged at 12,000 × g for 15 min at 4°C. The protein concentrations were quantified by BCA regent kits. Sodium dodecyl sulfate-polyacrylamide gel electrophoresis (SDS-PAGE) was used to separate the proteins, and they were then transferred to PVDF membranes. […] The protein bands were detected by a Tanon-5200 imaging system and the densities were analyzed by ImageJ software. […]

Data set [3] has as its system CYP46A1. The experiment in a line: Western blotting of CYP46A1 protein in h-CYP46A1-Neuro-2a cells. In kind it is cell-based, human. Conditions: 20 μM, 24 h. The protocol: MDCK-MDR1 cells and Neuro-2a-CYP46A1 cells were cultured in DMEM containing 10% (v/v) FBS, 1% nonessential amino acids, 100 U/mL penicillin G, and 100 μg/ml streptomycin, and incubated at 37°C in the presence of 5% CO2 and 95% humidity. The Neuro-2a-CYP46A1 cells were seeded into six-well plates at a density of 1 × 10^5 cells per well and cultured for 24 h. Drug intervention experiments were conducted by replacing the medium with a serum-free medium containing sesame ligands (20 μM) for 24 h.
The cells and tissues were harvested with lysis buffer and cleaved at 4°C for 20 min. All samples were centrifuged at 12,000 × g for 15 min at 4°C. The protein concentrations were quantified by BCA regent kits. Sodium dodecyl sulfate-polyacrylamide gel electrophoresis (SDS-PAGE) was used to separate the proteins, and they were then transferred to PVDF membranes. After incubation of the membranes with 5% non-fat milk for 2 h, they were then incubated with the primary antibodies at 4°C overnight. After washing three times, the membranes were incubated with the secondary antibody for 2 h. The protein bands were detected by a Tanon-5200 imaging system and the densities were analyzed by ImageJ software. The GAPDH antibody served as the internal control for sample loading.

Data set [4] addresses T1, recombinant human CYP46A1 (Homo sapiens, UniProt Q9Y6A2).
T1 construct: purchased Cypex (Dundee, Scotland, United Kingdom)
Put plainly: Inhibition of CYP46A1-catalysed testosterone 16β-hydroxylation. Format: biochemical. To be noted: for residual activity of CYP46A1: 10 μM lignan; for residual activity of CYP46A1 / IC50: testosterone 10 μM as substrate; for α: mixed inhibition model; for Ki: testosterone 2–150 μM; for Type of inhibition: testosterone as substrate. The method, then:
16β-hydroxytestosterone formation catalyzed by CYP46A1 was conducted at conditions linear for the duration of incubation and protein concentration. […] After preliminary incubation at 37°C for 5 min, 10 μL NADPH (final concentration, 1 mM) was added to initiate the reaction for 10 min. The reaction was stopped by adding the same volume of acetonitrile containing 1 μM of the internal standard. The mixture was left on ice until it was centrifuged at 20,000×g for 20 min at 4°C. Aliquots of the supernatant were stored at −20°C until analysis. The possible inhibitory intensities of the sesame lignans were evaluated by quantifying the 16-OH-TST generated.
Testosterone 16β-hydroxylation reaction samples were injected into an API 3200 triple quadrupole mass spectrometer (Applied Biosystems, Concord, Ontario, Canada) and an Agilent HP1200 LC system (Agilent Technology Inc., CA, United States). The chromatographic separation was performed on a Hypersil ODS-BP column (150 mm × 2.1 mm, 5 μm; Dalian Elite Analytical Instruments Co. Ltd., China) at ambient temperature. IonSpray Voltage (IS): 4500 V; Temperature (TEM): 590°C; Ion Source Gas1 (GS1, N1): […]; Ion Source Gas2 (GS2, N2): […]; Curtain Gas (CUR): 30 psi; Collision Gas (CAD): 12 psi. MS/MS conditions for analyzed compounds are shown in Supplementary Table S1. Mobile phase A consisted of 0.1% formic acid in water; mobile phase B consisted of 0.1% formic acid in acetonitrile; the flow rate was 0.4 ml/min. The gradient elution program was 0–1 min, 95% A; 1–3 min, 95%–65% A; 3–5 min, 65%–35% A; 5–6 min, 35%–15% A; 6–8 min, 15% A; 15%–95% A, 8–8.1 min; 8.1–12 min, 95% A. 16β-hydroxytestosterone and Carbamazepine (internal standard) were monitored in the positive ion mode, and detected by fragment ions at m/z 305.2→97.2 and 237.1→194.2, respectively. LC-MS/MS data acquisition and integration were performed with Analyst 1.6.3 using the internal standard and peak-area ratios for calculation (linear regression, 1/x weighting).
The three equations and the inhibition constant were as described in our previously published methods ([Wu et al., 2017]). v=Vmax⋅S/Km⋅(1+I/Ki)+S (1) v=Vmax⋅S/(Km+S)⋅(1+I/Ki) (2) v=Vmax⋅S/Km⋅(1+I/Ki)+S⋅(1+I/α⋅Ki) (3) where v is the reaction velocity; S and I denote the substrate and inhibitor concentrations, respectively; K i represents the inhibition constant describing the affinity of the inhibitor for the enzyme; K m refers to the substrate concentration at half-maximal velocity (V max) of the reaction. The α value determines the degree of change in enzyme affinity for the substrate following the binding of the inhibitor. When α is less than 1, binding of an inhibitor […] substrate binding, and the mixed model is identical to non-competitive inhibition. When α is very large (α > 1), the binding of an inhibitor […] substrate binding, and the mixed model depicts competitive inhibition. The type of inhibition was determined by fitting the data to enzyme inhibition models. The goodness-of-fit of kinetic and inhibition models was assessed using R ^2 values and parameter S.D. estimates. Dixon and Lineweaver-Burk plots were also used to characterize the inhibition kinetics. Kinetic constants are reported as the mean ± S.D. of the parameter estimate.

In a further data set the test system is NMDAR2B. The experiment in a line: Western blotting of rat brain tissue, NMDAR2B. In kind it is in vivo. To be noted: sesamin 60 mg/kg, 4 weeks, vs control. The protocol:
as §1, with “assays.” for “assays. The experimental procedure was performed as described previously ([Wen et al., 2018]). Total brain RNA and cDNA synthesis were meausured with an RNAiso Plus Reagent Kit and SYBR Premix Ex Taq Kit, respectively (Takara Biotechnology, Dalian, China). Quantitative real-time PCR was performed using SYBR Green PCR Master Mix and an ABI prim 7500 Sequence Detection System (Applied Biosystems, United States). Primers used for RT-qPCR are shown in Supplementary Table S2.”
as §2

Another data set concerns CYP2C9. Conditions: read-out: value of competitive inhibition of 7-position hydroxylation of S-warfarin, ref Fujii et al., 2020; cited from earlier work.
The test system of the next data set is NMDAR2A. The experiment in a line: Western blotting of rat brain tissue, NMDAR2A. Format: in vivo. To be noted: sesamin 60 mg/kg, 4 weeks, vs control. The method, then:
as §1, with “assays.” for “assays. The experimental procedure was performed as described previously ([Wen et al., 2018]). Total brain RNA and cDNA synthesis were meausured with an RNAiso Plus Reagent Kit and SYBR Premix Ex Taq Kit, respectively (Takara Biotechnology, Dalian, China). Quantitative real-time PCR was performed using SYBR Green PCR Master Mix and an ABI prim 7500 Sequence Detection System (Applied Biosystems, United States). Primers used for RT-qPCR are shown in Supplementary Table S2.”
as §2

The test system of another data set is HMGCR. The experiment in a line: Western blotting of rat brain tissue, HMGCR. Format: in vivo. To be noted: sesamin 60 mg/kg, 4 weeks, vs control. The method, then: as §1, with “assays.” for “assays. The experimental procedure was performed as described previously ([Wen et al., 2018]). Total brain RNA and cDNA synthesis were meausured with an RNAiso Plus Reagent Kit and SYBR Premix Ex Taq Kit, respectively (Takara Biotechnology, Dalian, China). Quantitative real-time PCR was performed using SYBR Green PCR Master Mix and an ABI prim 7500 Sequence Detection System (Applied Biosystems, United States). Primers used for RT-qPCR are shown in Supplementary Table S2.”
as §2

Data set [5] has as its system CYP46A1 activity (24S-hydroxycholesterol). Put plainly: 24S-hydroxycholesterol levels in rat plasma and brain (ELISA) after sesamin. In kind it is in vivo. Conditions: sesamin 60 mg/kg intragastric once daily, 4 weeks. The protocol: The experiments were reviewed and approved by the Experimental Animal Centre of Dalian Medical University. All rats were obtained from Liaoning Changsheng Biotechnology co., Ltd. All animal experiments complied with the ARRIVE guidelines and were carried out in accordance with the National Institutes of Health guide for the care and use of laboratory animals (NIH Publications No. […], revised 1978). Wistar rats were randomly divided into the administration group (n = 5) and the control group (n = 5). The rats were provided with laboratory standard animal feed and kept under a 12-h light cycle. Sesamin (60 mg/kg) was given by intragastric administration daily for 4 weeks; the control group was given an equivalent volume of olive oil. The rats were anesthetized with pentobarbital sodium (40 mg/kg) and blood samples and brain tissue samples were collected for further assays. The levels of 24S-hydroxycholesterol in rat plasma and brain tissues were measured by ELISA kits (Proteintech Group, Wuhan, China), according to the manufacturer’s instructions.

The next data set is described as follows: in vitro. To be noted: dog, MDCK-MDR1.

Structures are written as SMILES.

T1 sequence (Q9Y6A2 whole entry): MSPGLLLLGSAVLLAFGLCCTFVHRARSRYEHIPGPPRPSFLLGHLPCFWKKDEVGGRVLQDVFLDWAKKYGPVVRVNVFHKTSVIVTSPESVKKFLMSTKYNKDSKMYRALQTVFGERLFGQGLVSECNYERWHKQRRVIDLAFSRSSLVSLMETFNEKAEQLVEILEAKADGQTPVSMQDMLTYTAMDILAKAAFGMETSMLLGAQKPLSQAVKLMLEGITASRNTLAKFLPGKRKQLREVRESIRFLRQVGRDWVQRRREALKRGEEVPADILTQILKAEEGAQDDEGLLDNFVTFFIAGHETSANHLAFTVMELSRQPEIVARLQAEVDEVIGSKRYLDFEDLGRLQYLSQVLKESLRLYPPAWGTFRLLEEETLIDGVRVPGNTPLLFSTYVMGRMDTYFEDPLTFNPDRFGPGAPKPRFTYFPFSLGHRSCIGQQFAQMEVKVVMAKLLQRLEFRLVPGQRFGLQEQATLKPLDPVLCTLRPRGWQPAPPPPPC
Experimental for in vitro: as §3, §4

On to `c1cc2c(cc1[C@H]1OC[C@H]3[C@@H]1CO[C@@H]3c1ccc3c(c1)OCO3)OCO2` [Sesamin, sesamin], for which, in the data set with HMGCR mRNA, the “change of HMGCR mRNA expression in rat brain” value is “no significant changes”. Further, the “change of CYP46A1 mRNA expression in rat brain” value in the data set on CYP46A1 mRNA is listed as “no significant changes”. For the same molecule, the apparent permeability coefficient (Papp) at 120 min, 20 μM in data set [1] was determined as 67.5 nm/s. Further, the “reduction of CYP46A1 protein expression in rat brain tissue” value in the data set with CYP46A1 [2] was 27.3%. The “reduction of CYP46A1 protein level vs control” value (“reduction … vs control” below) in the data set on CYP46A1 [3] is 28.1%. For the same molecule, in data set [4], the “residual activity of CYP46A1” value was 36.2%, the α stood at 6.491, the IC50 came to 6.02 µM and the Ki was found to be 6.87 ± 1.07 µM. In [4], the Type of inhibition entry is on record as “mixed inhibition”. Also, in data set [4] (listed as sesamin), the Type of inhibition entry is recorded as “mixed partial competitive inhibition”. In addition, the “reduction of NMDAR2B protein expression in rat brain tissue” value with NMDAR2B is on record as 43.5%. Also, the Ki with CYP2C9 is 13.1 µM. For the same molecule, the “reduction of NMDAR2A protein expression in rat brain tissue” value in the data set with NMDAR2A is 22.1%. For the same molecule, the “reduction of HMGCR protein expression in rat brain tissue” value in the data set on HMGCR is on record as 31.6%. Further, in [5], the “decrease of 24S-HC level in brain” value turned out to be 29.3%, the “plasma concentration of 24S-HC” value was 45.747 ng/mL and the “reduction of 24S-HC level in plasma” value was found to be 55.88%.

`Oc1ccc2c(c1)OCO2` [Sesamol, sesamol] yielded a Papp at 120 min, 20 μM in data set [1] of 353 nm/s. In addition, the “reduction … vs control” value in the data set with CYP46A1 [3] worked out at 26.1%. Moreover, in data set [4], the “residual activity of CYP46A1” value stood at 59.4%, the IC50 worked out at 21.3 ± 4.74 µM, the Ki worked out at 18.7 ± 0.72 µM and the Type of inhibition result is given as “Non-competitive”.

Turning to `c1cc2c(cc1O[C@H]1OC[C@H]3[C@@H]1CO[C@@H]3c1ccc3c(c1)OCO3)OCO2` [Sesamolin, sesamolin], the Papp at 120 min, 20 μM in “in vitro” turned out to be 205 nm/s. Also, in the data set with CYP46A1 [3], the “reduction … vs control” value came to 57.1%. In [4], the “residual activity of CYP46A1” value is on record as 25.8%, the α worked out at 4.891, the IC50 stood at 3.34 ± 0.543 µM and the Ki came to 4.02 ± 0.786 µM. Also, in data set [4], the Type of inhibition result is recorded as “Mixed”. In addition, in data set [4] (listed as sesamolin), the Type of inhibition entry was “mixed partial competitive inhibition”.
